In ChEMBL document CHEMBL5620376, “Design, synthesis and anti-NASH effect evaluation of novel GFT505 derivatives in vitro and in vivo” (Eur J Med Chem, 2023) one finds Activity data, which are given here for 13 molecules.

The test system of data set [1] is HepG2. In words: Anti-NASH activity in free fatty acid-induced nonalcoholic steatohepatitis model in human HepG2 cells assessed as reduction in intracellular lipid accumulation at 40 micromol/L incubated for 24 hrs by Oil Red O/ Hematoxylin staining based analysis. It is filed as functional, cell-based. The note with it: dose 40.0 µmol/L.
The test system of data set [2] is HepG2. Nature of the data set: Anti-NASH activity in free fatty acid-induced nonalcoholic steatohepatitis model in human HepG2 cells assessed as reduction in intracellular triglyceride level measured per mg of protein at 40 micromol/L incubated for 24 hrs. The format is functional, cell-based. The following applies: dose 40.0 µmol/L.
The test system of data set [3] is HepG2. Nature of the data set: Cytotoxicity against human HepG2 cells assessed as inhibition of cell proliferation at 20 to 80 micromol/L incubated for 24 hrs by MTT assay. The note with it: dose 20-80 µmol/L. The format is functional, cell-based. A general note: Formazan colour is commonly taken as a measure of viable cells.
Data set [4] has as its system Mus musculus. In words: Anti-NASH activity in MCD diet-induced nonalcoholic steatohepatitis C57BL/6 mouse assessed as reduction in triglyceride level in serum at 3 to 30 mg/kg,po administrated for 28 days. It is filed as functional, organism-based. The following applies: dose 3-30 mg/kg, time 28.0 day.
Data set [5] concerns Mus musculus. Nature of the data set: Anti-NASH activity in MCD diet-induced nonalcoholic steatohepatitis C57BL/6 mouse assessed as decrease in serum ALT activity at 10 mg/kg,po administrated for 28 days. The format is functional, organism-based. The note with it: time 28.0 day.
For data set [6], the system named is HepG2. Nature of the data set: Anti-NASH activity in free fatty acid-induced nonalcoholic steatohepatitis model in human HepG2 cells assessed as reduction in AST activity at 40 micromol/L incubated for 24 hrs. The note with it: dose 40 µmol/L. The format is functional.
A short description of data set [7]: Hepatotoxicity in MCD diet-induced C57BL/6 mouse assessed as reduction in liver index at 3 to 30 mg/kg,po administrated for 4 weeks by hematoxylin and eosin staining based microscopic analysis. The format is toxicity, organism-based. The note with it: in vivo, 672 h, dose 3-30 mg/kg.
The test system of data set [8] is Mus musculus. Nature of the data set: Anti-NASH activity in MCD diet-induced nonalcoholic steatohepatitis C57BL/6 mouse assessed as decrease in serum ALT activity at 30 mg/kg,po administrated for 28 days. The following applies: time 28.0 day. The format is functional, organism-based.
For data set [9], the system named is Mus musculus. In words: Anti-NASH activity in MCD diet-induced nonalcoholic steatohepatitis C57BL/6 mouse assessed as decrease in serum AST activity at 3 to 30 mg/kg,po administrated for 28 days. The format is functional, organism-based. The following applies: dose 3-30 mg/kg, time 28.0 day.
Data set [10] deals with Mus musculus. In words: Anti-NASH activity in MCD diet-induced nonalcoholic steatohepatitis C57BL/6 mouse assessed as reduction in total cholesterol level in serum at 3 to 30 mg/kg,po administrated for 28 days. The format is functional, organism-based. The following applies: dose 3-30 mg/kg, time 28.0 day.
In data set [11] the test system is Mus musculus. Nature of the data set: Anti-NASH activity in MCD diet-induced nonalcoholic steatohepatitis C57BL/6 mouse assessed as decrease in serum IL-8 level at 3 to 30 mg/kg,po administrated for 28 days. It is filed as functional, organism-based. The note with it: dose 3-30 mg/kg, time 28.0 day.
Data set [12] deals with Mus musculus. In words: Anti-NASH activity in MCD diet-induced nonalcoholic steatohepatitis C57BL/6 mouse assessed as increase in liver GSH level at 30 mg/kg,po administrated for 28 days. It is filed as functional. The note with it: time 28 day.
The test system of data set [13] is Mus musculus. In words: Anti-NASH activity in MCD diet-induced nonalcoholic steatohepatitis C57BL/6 mouse assessed as decrease in serum IL-6 level at 3 to 30 mg/kg,po administrated for 28 days. It is filed as functional, organism-based. The following applies: dose 3-30 mg/kg, time 28.0 day.
Data set [14] concerns Mus musculus. Nature of the data set: Anti-NASH activity in MCD diet-induced nonalcoholic steatohepatitis C57BL/6 mouse assessed as decrease in serum LDL level at 3 to 30 mg/kg,po administrated for 28 days. The format is functional, organism-based. The following applies: dose 3-30 mg/kg, time 28.0 day.
Data set [15] has as its system Mus musculus. Nature of the data set: Anti-NASH activity in MCD diet-induced nonalcoholic steatohepatitis C57BL/6 mouse assessed as increase in liver GSH level at 3 to 30 mg/kg,po administrated for 28 days. The format is functional, organism-based. The note with it: dose 3-30 mg/kg, time 28.0 day.
The test system of data set [16] is Mus musculus. Nature of the data set: Anti-NASH activity in MCD diet-induced nonalcoholic steatohepatitis C57BL/6 mouse assessed as decrease in serum TNF-alpha level at 3 to 30 mg/kg,po administrated for 28 days. The format is functional, organism-based. The following applies: dose 3-30 mg/kg, time 28.0 day.
Data set [17] concerns Mus musculus. Nature of the data set: Anti-NASH activity in MCD diet-induced nonalcoholic steatohepatitis C57BL/6 mouse assessed as increase in serum HDL level at 3 to 30 mg/kg,po administrated for 28 days. It is filed as functional, organism-based. The note with it: dose 3-30 mg/kg, time 28.0 day.
The test system of data set [18] is Mus musculus. Nature of the data set: Anti-NASH activity in MCD diet-induced nonalcoholic steatohepatitis C57BL/6 mouse assessed as reduction in triglyceride level in serum at 3 mg/kg,po administrated for 28 days. The following applies: time 28.0 day. It is filed as functional, organism-based.
Data set [19] relates to Mus musculus. Nature of the data set: Anti-NASH activity in MCD diet-induced nonalcoholic steatohepatitis C57BL/6 mouse assessed as reduction in triglyceride level in serum at 3 mg/kg,po administrated […]. The format is functional.
In data set [20] the test system is Mus musculus. Nature of the data set: Anti-NASH activity in MCD diet-induced nonalcoholic steatohepatitis C57BL/6 mouse assessed as reduction in triglyceride level in serum at 30 mg/kg,po administrated for 28 days. It is filed as functional. The note with it: time 28 day.
Data set [21] deals with Mus musculus. In words: Anti-NASH activity in MCD diet-induced nonalcoholic steatohepatitis C57BL/6 mouse assessed as reduction in triglyceride level in serum at 10 mg/kg,po administrated for 28 days. The format is functional. The note with it: time 28 day.
Data set [22] relates to Mus musculus. In words: Anti-NASH activity in MCD diet-induced nonalcoholic steatohepatitis C57BL/6 mouse assessed as decrease in serum TNF-alpha level at 100 mg/kg,po administrated for 28 days. It is filed as functional, organism-based. The following applies: time 28.0 day.
In data set [23] the test system is Mus musculus. Nature of the data set: Anti-NASH activity in MCD diet-induced nonalcoholic steatohepatitis C57BL/6 mouse assessed as reduction in triglyceride level in serum at 100 mg/kg,po administrated for 28 days. It is filed as functional, organism-based. The following applies: time 28.0 day.
Data set [24] deals with HepG2. Nature of the data set: Anti-NASH activity in free fatty acid-induced nonalcoholic steatohepatitis model in human HepG2 cells assessed as reduction in intracellular triglyceride level measured per mg of protein at 100 micromol/L incubated for 24 hrs. The format is functional. The note with it: dose 100 µmol/L.
The test system of data set [25] is HepG2. In words: Anti-NASH activity in free fatty acid-induced nonalcoholic steatohepatitis model in human HepG2 cells assessed as reduction in AST activity at 100 micromol/L incubated for 24 hrs. It is filed as functional. The note with it: dose 100 µmol/L.
The subject of data set [26] is Mus musculus. In words: Anti-NASH activity in MCD diet-induced nonalcoholic steatohepatitis C57BL/6 mouse assessed as increase in serum HDL level at 100 mg/kg,po administrated for 28 days. It is filed as functional, organism-based. The following applies: time 28.0 day.
The nature of data set [27]: Hepatotoxicity in MCD diet-induced C57BL/6 mouse assessed as reduction in liver index at 100 mg/kg,po administrated for 4 weeks by hematoxylin and eosin staining based microscopic analysis. The format is toxicity, organism-based. The note with it: in vivo, 672 h.
Data set [28] deals with Mus musculus. In words: Anti-NASH activity in MCD diet-induced nonalcoholic steatohepatitis C57BL/6 mouse assessed as decrease in serum AST activity at 100 mg/kg,po administrated for 28 days. The following applies: time 28.0 day. It is filed as functional, organism-based.
Data set [29] has as its system HepG2. In words: Anti-NASH activity in free fatty acid-induced nonalcoholic steatohepatitis model in human HepG2 cells assessed as reduction in intracellular lipid accumulation at 100 micromol/L incubated for 24 hrs by Oil Red O/ Hematoxylin staining based analysis. It is filed as functional, cell-based. The following applies: dose 100.0 µmol/L.
In data set [30] the test system is Mus musculus. In words: Anti-NASH activity in MCD diet-induced nonalcoholic steatohepatitis C57BL/6 mouse assessed as decrease in serum LDL level at 100 mg/kg,po administrated for 28 days. It is filed as functional, organism-based. The note with it: time 28.0 day.
The test system of data set [31] is Mus musculus. In words: Anti-NASH activity in MCD diet-induced nonalcoholic steatohepatitis C57BL/6 mouse assessed as increase in liver GSH level at 100 mg/kg,po administrated for 28 days. It is filed as functional, organism-based. The note with it: time 28.0 day.
Data set [32] has as its system Mus musculus. Nature of the data set: Anti-NASH activity in MCD diet-induced nonalcoholic steatohepatitis C57BL/6 mouse assessed as decrease in serum IL-6 level at 100 mg/kg,po administrated for 28 days. It is filed as functional, organism-based. The following applies: time 28.0 day.
In data set [33] the test system is Mus musculus. Nature of the data set: Anti-NASH activity in MCD diet-induced nonalcoholic steatohepatitis C57BL/6 mouse assessed as decrease in serum ALT activity at 100 mg/kg,po administrated for 28 days. The format is functional, organism-based. The following applies: time 28.0 day.

SMILES strings stand for the structures. Activity calls are given as the source filed them. No cut-off for these calls is given here.

Take `C[Se]c1ccc(C(=O)/C=C/c2cc(C)c(OC(C)(C)C(=O)O)c(C)c2)cc1`: the result in data set [1], in data set [2] and in data set [3] was Active.

For `CSc1ccc(C(=O)/C=C/c2cc(C)c(OC(C)(C)C(=O)OC(C)(C)C)c(C)c2)cc1`, the result in [1] and in data set [2] was Active. Also, the outcome in [3] was inactive.

Take `C[Se]c1ccc(C(=O)/C=C/c2cc(C)c(OC(C)(C)C(=O)OC(C)(C)C)c(C)c2)cc1`: the result in data set [1] and in data set [2] was Active. Also, in data set [3], the outcome was inactive.

Turning to `CNc1ccc(C(=O)/C=C/c2cc(C)c(OC(C)(C)C(=O)OC(C)(C)C)c(C)c2)cc1`, the outcome in [4], in [5], in data set [8], in [9], in data set [10] and in data set [11] was Active. Further, the result in data set [13], in data set [14], in data set [1], in data set [15], in data set [2] and in data set [16] was Active. Further, in data set [17], the result was Active. Moreover, the figures for the Activity in [6], in [7] and in data set [12] were 18.65 U/g, “Non-Toxic” and 47.8 µmol/g, respectively. The result in data set [3] was inactive.

Turning to `Cc1cc(/C=C/C(=O)c2ccc(N(C)Cc3ccccc3)cc2)cc(C)c1OC(C)(C)C(=O)OC(C)(C)C`, the result in [1] and in data set [2] was Active. The result in data set [3] was inactive.

Take `CNc1ccc(C(=O)/C=C/c2cc(C)c(OC(C)(C)C(=O)O)c(C)c2)cc1`: the outcome in [1], in data set [2] and in data set [3] was inactive.

With `COc1ccc(C(=O)/C=C/c2cc(C)c(OC(C)(C)C(=O)OC(C)(C)C)c(C)c2)cc1`, the result in [1] and in [2] was Active. For the same molecule, the result in [3] was inactive.

On to `CSc1ccc(C(=O)/C=C/c2cc(C)c(OC(C)(C)C(=O)O)c(C)c2)cc1` [ELAFIBRANOR], for which the outcome in data set [5], in data set [8], in [9], in [10], in data set [11] and in data set [13] was Active. The result in data set [14], in [1], in [15], in [2], in [16] and in data set [3] was Active. For the same molecule, in data set [17], the outcome was Active. In addition, the Activity was 18.31 U/g in [6]; “Toxic” in [7]; 0.64 mmol/L in data set [19]; 0.53 mmol/L in [20]; 0.69 mmol/L in data set [21]. Moreover, the result in data set [18] was inactive.

With `COc1ccc(C(=O)/C=C/c2cc(C)c(OC(C)(C)C(=O)O)c(C)c2)cc1`, the outcome in data set [1], in [2] and in data set [3] was Active.

Consider `Cc1cc(/C=C/C(=O)c2ccc(N(C)Cc3ccccc3)cc2)cc(C)c1OC(C)(C)C(=O)O`, for which the outcome in data set [1] and in data set [2] was Active. For the same molecule, in data set [3], the result was inactive.

With `Cc1cc(/C=C/C(=O)c2ccc(N(C)C)cc2)cc(C)c1OC(C)(C)C(=O)OC(C)(C)C`, the result in [1], in [2] and in [3] was inactive.

Take `CC(C)OC(=O)C(C)(C)Oc1ccc(C(=O)c2ccc(Cl)cc2)cc1` [FENOFIBRATE]: the result in [22], in [23], in data set [26], in data set [28], in [29] and in [30] was Active. Further, the outcome in data set [31], in data set [32] and in [33] was Active. For the same molecule, the Activity was 0.15 mmol in data set [24], 19.78 U/g in data set [25] and “Toxic” in data set [27].

Consider `Cc1cc(/C=C/C(=O)c2ccc(N(C)C)cc2)cc(C)c1OC(C)(C)C(=O)O`, for which the outcome in data set [1] and in data set [2] was Active. The result in [3] was inactive.
